How the values were obtained:
human fyn SH2 domain = biological target: T1, human fyn SH2 domain (Homo sapiens, UniProt P06241); assay: ELISA-based SH2 domain / pY peptide binding assay, fyn SH2 domain
T1 construct: made in house; host or cells: E. coli (pGEX-2T)
Protocol: (§1) The inhibitory activity of compounds at the different human SH2 domains was determined in vitro using SH2 domains expressed as fusion proteins in E. coli. The SH2 domains used herein were the human forms of the src SH2 domain, Grb2 SH2 domain, lck SH2 domain, fyn SH2 domain, SH-PTP2 SH2 domain, p85 SH2 domain and hcp SH2 domain.
(§2) Fusion proteins having the structure GST-X-SH2 were prepared as described in the GST gene fusion kit system available from Pharmacia (New Jersey). GST is the tagging sequence glutathione s-transferase epitope (SEQ ID NO: 8) for fyn, Grb2 and SH-PTP2 and is the tagging sequence glutathione s-transferase epitope (SEQ ID NO: 9) for p85. SH2 refers to the SH2 domains of fyn, Grb2, p85 and SH-PTP2 which were expressed and purified using glutathione Sepharose 4B (Pharmacia) according to "Current Protocols in Molecular Biology", ed. FM Ausubel et al., pub. John Wiley and Sons, Inc., (1995), p 16.7.1. X is an appropriate linker, preferably of 6 to 21 base pairs, used to keep the SH2 construct in frame and complement cloning. As such, the sequence of X is not critical. One skilled in the art can readily construct the appropriate linker. The DNA sequence encoding each GST-X-SH2 fusion protein was designed such that the indicated restriction sites (BamH1 and EcoRI) flank the SH2 region. […]

human SH-PTP2 SH2 domain = biological target: T2, human SH-PTP2 SH2 domain (Homo sapiens, UniProt Q06124); assay: ELISA-based SH2 domain / pY peptide binding assay, SH-PTP2 SH2 domain; settings: Ki calculated from IC50 with the expanded equation
T2 construct: made in house; host or cells: E. coli (pGEX-2T)
T2 sequence (Q06124 1-106): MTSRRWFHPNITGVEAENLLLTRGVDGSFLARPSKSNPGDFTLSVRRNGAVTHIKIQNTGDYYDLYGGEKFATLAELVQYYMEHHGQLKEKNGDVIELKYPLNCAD
Protocol: as §1, §2

human Grb2 SH2 domain = biological target: T3, human Grb2 SH2 domain (Homo sapiens, UniProt P62993); assay: ELISA-based SH2 domain / pY peptide binding assay, Grb2 SH2 domain
T3 construct: made in house; host or cells: E. coli (pGEX-2T)
T3 sequence (P62993 58-159): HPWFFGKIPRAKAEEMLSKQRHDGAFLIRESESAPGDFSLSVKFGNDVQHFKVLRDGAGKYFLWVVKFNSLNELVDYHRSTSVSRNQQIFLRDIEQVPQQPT
Protocol: as §1, §2

[1] = Ki calculated from IC50 with the expanded equation
[2] = inhibition of binding of 0.1 uM biotinylated pY peptide to SH2 domain fusion protein

T1 sequence (P06241 143-252): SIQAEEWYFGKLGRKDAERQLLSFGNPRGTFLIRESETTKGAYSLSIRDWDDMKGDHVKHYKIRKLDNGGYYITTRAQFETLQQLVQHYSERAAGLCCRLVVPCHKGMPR

## CCCCCCNC(=O)[C@H]1CC[C@H](CNC(=O)c2ccc(C(=O)c3ccc(C(=O)O)cc3)cc2)CC1 [Compound 6, 4-carboxy-benzophenone-4-carboxamido-trans-4-methyl-cyclohexyl-N-hexyl carboxamide]
Human fyn SH2 domain; [1]
  Ki: > 1 mM
Human fyn SH2 domain; [2]
  IC50: > 300 µM
Human SH-PTP2 SH2 domain
  Ki: > 1 mM
Human Grb2 SH2 domain; [1]
  Ki: > 1 mM
Human Grb2 SH2 domain; [2]
  IC50: > 300 µM

Reference: patent EP0728482A2, “Use of hcp specific compounds to enhance erythropoiesis” (SMITHKLINE BEECHAM CORPORATION, priority 1995, dated 1996)
